Assay results reported in US20230000870A1, “METHODS OF TREATING CANCER IN BIOMARKER-IDENTIFIED PATIENTS WITH INHIBITORS OF CYCLIN-DEPENDENT KINASE 7 (CDK7)” (Syros Pharmaceuticals, Inc., priority 2019, published 2023).
pIC50: −log10 of the molar value.

How the values were obtained:
CDK2/Cyclin E1 complex = CDK2/Cyclin E1 complex (Homo sapiens, UniProt P24941); assay: CDK2 kinase inhibition assay (Caliper/LabChip EZ Reader); type: biochemical; details: CDK2/Cyclin E1 0.5 nM, ATP 2 mM, 35 min at 27° C.
Method in brief: (§1)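 Caliper/LabChip mobility-shift kinase assays at 27° C. CDK9/Cyclin T1 8 nM with 2 μM 5-FAM-CDK9tide, 10 mM MgCl2, 15 min; CDK12/Cyclin K 50 nM with 5-FAM-CDK9tide 2 μM, 2 mM MgCl2, 3 hr; CDK2/Cyclin E1 0.5 nM with 5-FAM-CDK7tide 2 μM, 2 mM MgCl2, 35 min; CDK7 35 min.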

[1] = target: CDK7/Cyclin H/MAT1 complex (Homo sapiens, UniProt P50613); assay: CDK7 kinase inhibition assay (Caliper/LabChip EZ Reader); type: biochemical; details: CDK7/Cyclin H/MAT1 6 nM, ATP 2 mM, 35 min at 27° C.
CDK7/Cyclin H/MAT1 complex, sequence (P50613 whole entry): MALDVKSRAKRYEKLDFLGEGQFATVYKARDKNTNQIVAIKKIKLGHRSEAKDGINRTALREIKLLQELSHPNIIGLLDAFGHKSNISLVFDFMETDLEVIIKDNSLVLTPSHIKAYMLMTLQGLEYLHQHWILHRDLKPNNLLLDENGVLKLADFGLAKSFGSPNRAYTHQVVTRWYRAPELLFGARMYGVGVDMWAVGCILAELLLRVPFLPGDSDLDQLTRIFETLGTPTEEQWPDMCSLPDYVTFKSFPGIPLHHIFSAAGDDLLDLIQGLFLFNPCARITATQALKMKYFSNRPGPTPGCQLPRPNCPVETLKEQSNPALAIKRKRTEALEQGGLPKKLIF
CDK7/Cyclin H/MAT1 complex, sequence (P51946 whole entry partner): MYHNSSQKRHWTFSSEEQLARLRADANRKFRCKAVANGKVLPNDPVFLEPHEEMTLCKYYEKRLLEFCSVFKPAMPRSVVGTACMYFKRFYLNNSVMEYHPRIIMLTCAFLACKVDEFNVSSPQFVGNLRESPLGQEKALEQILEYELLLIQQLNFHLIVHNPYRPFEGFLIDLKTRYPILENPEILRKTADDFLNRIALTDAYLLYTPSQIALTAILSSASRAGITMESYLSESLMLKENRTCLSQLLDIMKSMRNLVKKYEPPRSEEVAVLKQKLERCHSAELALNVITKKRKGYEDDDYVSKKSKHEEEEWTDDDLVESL
CDK7/Cyclin H/MAT1 complex, sequence (P51948 whole entry partner): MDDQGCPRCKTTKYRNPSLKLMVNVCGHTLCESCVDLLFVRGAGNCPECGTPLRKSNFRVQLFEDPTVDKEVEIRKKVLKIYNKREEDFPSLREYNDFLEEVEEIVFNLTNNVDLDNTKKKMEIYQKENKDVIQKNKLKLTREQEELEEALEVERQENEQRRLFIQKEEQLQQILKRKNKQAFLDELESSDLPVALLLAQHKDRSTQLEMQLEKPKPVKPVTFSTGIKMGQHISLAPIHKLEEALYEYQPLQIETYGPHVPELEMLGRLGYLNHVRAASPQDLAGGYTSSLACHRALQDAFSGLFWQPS
Method in brief: as §1

CDK9/Cyclin T1 complex = CDK9/Cyclin T1 complex (Homo sapiens, UniProt P50750); assay: CDK9 kinase inhibition assay (Caliper/LabChip EZ Reader); type: biochemical; details: CDK9/Cyclin T1 8 nM, ATP 2 mM, 15 min at 27° C.
CDK9/Cyclin T1 complex, sequence (P50750 whole entry): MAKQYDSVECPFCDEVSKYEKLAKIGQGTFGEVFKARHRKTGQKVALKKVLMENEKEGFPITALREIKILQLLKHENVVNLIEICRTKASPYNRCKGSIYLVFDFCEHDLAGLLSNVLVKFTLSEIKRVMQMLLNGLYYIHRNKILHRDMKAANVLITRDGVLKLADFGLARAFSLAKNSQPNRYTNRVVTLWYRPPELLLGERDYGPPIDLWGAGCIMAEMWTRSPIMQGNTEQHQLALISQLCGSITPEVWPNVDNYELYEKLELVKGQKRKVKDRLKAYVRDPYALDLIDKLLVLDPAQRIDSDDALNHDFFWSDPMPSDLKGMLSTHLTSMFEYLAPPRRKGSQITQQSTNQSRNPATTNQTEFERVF
CDK9/Cyclin T1 complex, sequence (O60563 whole entry partner): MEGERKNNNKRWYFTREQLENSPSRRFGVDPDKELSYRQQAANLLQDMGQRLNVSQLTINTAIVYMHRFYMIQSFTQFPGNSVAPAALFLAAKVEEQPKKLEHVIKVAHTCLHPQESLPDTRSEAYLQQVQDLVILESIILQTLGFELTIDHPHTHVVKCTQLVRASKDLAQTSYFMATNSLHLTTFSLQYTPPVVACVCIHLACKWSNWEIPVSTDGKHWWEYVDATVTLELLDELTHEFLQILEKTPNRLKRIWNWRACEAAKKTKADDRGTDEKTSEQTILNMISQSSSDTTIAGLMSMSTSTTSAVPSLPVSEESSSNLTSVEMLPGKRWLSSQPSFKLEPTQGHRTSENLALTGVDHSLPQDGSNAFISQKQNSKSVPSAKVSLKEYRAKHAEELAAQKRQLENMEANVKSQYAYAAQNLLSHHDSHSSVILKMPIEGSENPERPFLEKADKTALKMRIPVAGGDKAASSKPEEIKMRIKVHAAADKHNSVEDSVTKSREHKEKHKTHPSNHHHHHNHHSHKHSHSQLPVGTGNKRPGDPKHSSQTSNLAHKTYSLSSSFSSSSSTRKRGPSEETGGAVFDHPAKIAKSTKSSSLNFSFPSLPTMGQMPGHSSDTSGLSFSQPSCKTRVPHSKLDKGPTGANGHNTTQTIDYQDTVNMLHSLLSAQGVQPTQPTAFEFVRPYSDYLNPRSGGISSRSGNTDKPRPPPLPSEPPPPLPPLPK
Method in brief: as §1

[2] = target: T1, CDK12 (aa686-1082)/Cyclin K complex (Homo sapiens, UniProt Q9NYV4); assay: CDK12 kinase inhibition assay (Caliper/LabChip EZ Reader); type: biochemical; details: CDK12 (aa686-1082)/Cyclin K 50 nM, ATP 2 mM, 3 hr at 27° C.
T1 construct: CDK12 (aa686-1082)/Cyclin K complex
T1 sequence (Q9NYV4 686-1082): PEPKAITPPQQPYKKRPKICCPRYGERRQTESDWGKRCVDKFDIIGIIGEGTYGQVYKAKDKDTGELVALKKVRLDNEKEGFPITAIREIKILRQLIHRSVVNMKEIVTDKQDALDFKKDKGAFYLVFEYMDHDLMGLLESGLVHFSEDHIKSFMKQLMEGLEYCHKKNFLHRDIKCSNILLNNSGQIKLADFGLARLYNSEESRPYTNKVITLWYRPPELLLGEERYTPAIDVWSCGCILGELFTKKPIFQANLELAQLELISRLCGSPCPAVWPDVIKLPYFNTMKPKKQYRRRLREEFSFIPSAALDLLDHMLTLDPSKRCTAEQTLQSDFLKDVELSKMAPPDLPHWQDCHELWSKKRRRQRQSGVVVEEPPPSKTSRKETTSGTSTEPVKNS
T1 sequence (O75909 whole entry partner, the tested form may be a part): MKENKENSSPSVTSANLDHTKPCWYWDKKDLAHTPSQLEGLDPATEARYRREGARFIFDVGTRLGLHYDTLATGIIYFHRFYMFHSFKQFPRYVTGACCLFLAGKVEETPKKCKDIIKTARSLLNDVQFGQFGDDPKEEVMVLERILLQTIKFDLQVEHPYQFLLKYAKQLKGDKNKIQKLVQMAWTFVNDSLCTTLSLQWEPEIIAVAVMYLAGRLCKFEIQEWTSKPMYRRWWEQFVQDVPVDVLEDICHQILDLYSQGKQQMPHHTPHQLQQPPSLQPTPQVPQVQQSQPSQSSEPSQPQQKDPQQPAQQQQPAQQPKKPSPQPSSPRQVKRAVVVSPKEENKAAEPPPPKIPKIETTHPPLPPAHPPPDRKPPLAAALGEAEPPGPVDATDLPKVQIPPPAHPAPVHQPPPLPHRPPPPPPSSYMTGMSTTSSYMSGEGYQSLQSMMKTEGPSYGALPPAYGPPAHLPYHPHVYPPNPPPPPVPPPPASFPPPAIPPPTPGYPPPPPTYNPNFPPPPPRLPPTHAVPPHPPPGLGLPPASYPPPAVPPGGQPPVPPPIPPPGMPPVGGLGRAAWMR
Method in brief: as §1

A673 cells = assay: Inhibition of proliferation of A673 cells (CyQUANT, 72 hour); type: cell-based, human; details: read-out: Inhibition of Proliferation of A673 Cells (calculated IC50)
Method in brief: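 Human Ewing's sarcoma A673 cells in DMEM + 10% FBS + 1 mM sodium pyruvate, 37 °C, 5% CO2. Compounds in 0.5-log serial dilutions, stated range 4 μM to […], for 72 h. Anti-proliferative effect read with CyQUANT per kit directions.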

Row | SMILES | pIC50 (CDK2/Cyclin E1 complex) | pIC50 [1] | pIC50 (CDK9/Cyclin T1 complex) | pIC50 [2] | pIC50 (A673 cells)
1 | CCc1cnc(NC2CCCNC2)nc1-c1c[nH]c2ncc(F)cc12 (stereo not shown) [Compound 231] | ≤ 5.30 | ≤ 5.30 | ≤ 5.30 | ≤ 5.30 | 5.30 to 6.70
2 | CC(O)c1cnc(NC2CCCNC2)nc1-c1c[nH]c2ccccc12 (stereo not shown) [Compound 234] | ≤ 5.30 | 5.30 to 6.70 | ≤ 5.30 | ≤ 5.30 | > 7.70
3 | CC(O)c1cnc(NC2CCCNC2)nc1-c1c[nH]c2ccccc12 (stereo not shown) [Compound 238] | ≤ 5.30 | 5.30 to 6.70 | ≤ 5.30 | ≤ 5.30 | 5.30 to 6.70
4 | CC(O)c1cnc(NC2CCCNC2)nc1-c1c[nH]c2ccccc12 (stereo not shown) [Compound 239] | ≤ 5.30 | 5.30 to 6.70 | ≤ 5.30 | ≤ 5.30 | 5.30 to 6.70
5 | CC(C)(O)CCc1ccc2c(-c3nc(NC4CCCNC4)ncc3C(F)(F)F)c[nH]c2c1 (stereo not shown) [Compound 242] | ≤ 5.30 | 6.70 to 7.70 | 5.30 to 6.70 | 5.30 to 6.70 | 6.70 to 7.70
6 | CC(O)c1cnc(NC2CCCNC2)nc1-c1c[nH]c2ccccc12 (stereo not shown) [Compound 247] | ≤ 5.30 | 5.30 to 6.70 | ≤ 5.30 | ≤ 5.30 | 5.30 to 6.70
7 | N#Cc1cn(-c2ccc3c(-c4nc(NC5CCCNC5)ncc4C(F)(F)F)c[nH]c3c2)cn1 (stereo not shown) [Compound 249] | ≤ 5.30 | > 7.70 | ≤ 5.30 | 5.30 to 6.70 | 6.70 to 7.70
8 | CNC(=O)C1CNCC(Nc2ncc(C(F)(F)F)c(-c3c[nH]c4ccccc34)n2)C1 (stereo not shown) [Compound 252] | 5.30 to 6.70 | 6.70 to 7.70 | ≤ 5.30 | ≤ 5.30 | 5.30 to 6.70
9 | CNC(=O)C1CNCC(Nc2ncc(C(F)(F)F)c(-c3c[nH]c4ccccc34)n2)C1 (stereo not shown) [Compound 256] | 5.30 to 6.70 | 6.70 to 7.70 | ≤ 5.30 | 5.30 to 6.70 | 5.30 to 6.70
10 | CC(C)C1CC[C@H](Nc2ncc(C(F)(F)F)c(-c3c[nH]c4ccccc34)n2)CN1 (stereo partly shown) [Compound 257] | ≤ 5.30 | 6.70 to 7.70 | ≤ 5.30 | ≤ 5.30 | 5.30 to 6.70
11 | N#Cc1ccc2c(-c3nc(NC4CCCNC4)ncc3C(F)(F)F)c[nH]c2c1C#N (stereo not shown) [Compound 258] | 5.30 to 6.70 | > 7.70 | 5.30 to 6.70 | 5.30 to 6.70 | 6.70 to 7.70
12 | CCC(=O)NC1CNCC(Nc2ncc(C(F)(F)F)c(-c3c[nH]c4c(S(C)(=O)=O)cccc34)n2)C1 (stereo not shown) [Compound 259] | 5.30 to 6.70 | > 7.70 | 5.30 to 6.70 | 5.30 to 6.70 | 6.70 to 7.70
13 | CC(C)C1CCC(Nc2ncc(C(F)(F)F)c(-c3c[nH]c4ccccc34)n2)CN1 (stereo not shown) [Compound 260] | ≤ 5.30 | 5.30 to 6.70 | ≤ 5.30 | 5.30 to 6.70 | 5.30 to 6.70
14 | CCc1cnc(NC2CCCNC2)nc1-c1n[nH]c2ncccc12 (stereo not shown) [Compound 262] | 5.30 to 6.70 | > 7.70 | 5.30 to 6.70 | 5.30 to 6.70 | 6.70 to 7.70
15 | CS(=O)(=O)c1cccn2c(C3CNCC(Nc4ncc(C(F)(F)F)c(-c5c[nH]c6ccccc56)n4)C3)nnc12 (stereo not shown) [Compound 265] | 5.30 to 6.70 | 5.30 to 6.70 | 5.30 to 6.70 | 5.30 to 6.70 | 6.70 to 7.70
16 | FC(F)(F)c1cnc(NC2CNCC(c3nnc4ccccn34)C2)nc1-c1c[nH]c2ccccc12 (stereo not shown) [Compound 266] | 5.30 to 6.70 | 6.70 to 7.70 | 5.30 to 6.70 | 5.30 to 6.70 | 6.70 to 7.70
17 | CCS(=O)(=O)c1ccc2c(-c3nc(NC4CCCNC4)ncc3C(F)(F)F)c[nH]c2c1 (stereo not shown) [Compound 274] | 5.30 to 6.70 | > 7.70 | 5.30 to 6.70 | 5.30 to 6.70 | 6.70 to 7.70
18 | CCc1cnc(NC2CCCNC2)nc1-c1n[nH]c2cc(C#N)ccc12 (stereo not shown) [Compound 275] | 5.30 to 6.70 | > 7.70 | 5.30 to 6.70 | 5.30 to 6.70 | 6.70 to 7.70
19 | CC(C)c1cnc(N[C@H]2CCCNC2)nc1-c1n[nH]c2nc(C#N)ccc12 [Compound 276] | ≤ 5.30 | 6.70 to 7.70 | ≤ 5.30 | ≤ 5.30 | 5.30 to 6.70

Continued, in another order:

Row | pIC50 (CDK2/Cyclin E1 complex) | pIC50 [1] | pIC50 (CDK9/Cyclin T1 complex) | pIC50 [2] | SMILES | pIC50 (A673 cells)
20 | 5.30 to 6.70 | > 7.70 | 5.30 to 6.70 | 5.30 to 6.70 | Cn1cc(-c2ccc3c(-c4nc(NC5CCCNC5)ncc4C(F)(F)F)c[nH]c3c2)cc1C#N (stereo not shown) [Compound 225] | 6.70 to 7.70
21 | 5.30 to 6.70 | > 7.70 | 5.30 to 6.70 | 5.30 to 6.70 | Cc1nn(C)cc1-c1ccc2c(-c3nc(N[C@H]4CCCNC4)ncc3C(F)(F)F)c[nH]c2c1 [Compound 226] | > 7.70
22 | 5.30 to 6.70 | > 7.70 | 5.30 to 6.70 | 5.30 to 6.70 | Cc1c(-c2ccc3c(-c4nc(NC5CCCNC5)ncc4C(F)(F)F)c[nH]c3c2)cnn1C (stereo not shown) [Compound 227] | 6.70 to 7.70
23 | 5.30 to 6.70 | > 7.70 | 5.30 to 6.70 | 5.30 to 6.70 | O=C(C1CCC(Nc2ncc(C(F)(F)F)c(-c3c[nH]c4ccccc34)n2)CN1)N1CCCC1 (stereo not shown) [Compound 228] | 6.70 to 7.70
24 | 5.30 to 6.70 | > 7.70 | 5.30 to 6.70 | 5.30 to 6.70 | Cc1n[nH]cc1-c1ccc2[nH]cc(-c3nc(NC4CCCNC4)ncc3C(F)(F)F)c2c1 (stereo not shown) [Compound 229] | > 7.70
25 | 5.30 to 6.70 | > 7.70 | 5.30 to 6.70 | 5.30 to 6.70 | FC(F)(F)c1cnc(N[C@H]2CCCNC2)nc1-c1c[nH]c2ccc(-c3ccnnc3)cc12 [Compound 230] | 6.70 to 7.70
26 | 5.30 to 6.70 | > 7.70 | 5.30 to 6.70 | 5.30 to 6.70 | N#Cc1cc(-c2ccc3c(-c4nc(NC5CCCNC5)ncc4C(F)(F)F)c[nH]c3c2)c[nH]1 (stereo not shown) [Compound 233] | 6.70 to 7.70
27 | 5.30 to 6.70 | > 7.70 | 5.30 to 6.70 | 5.30 to 6.70 | Cc1nc(-c2ccc3c(-c4nc(NC5CCCNC5)ncc4C(F)(F)F)c[nH]c3c2)n[nH]1 (stereo not shown) [Compound 235] | 5.30 to 6.70
28 | 5.30 to 6.70 | > 7.70 | 5.30 to 6.70 | 5.30 to 6.70 | FC1(F)CNC[C@@H](Nc2ncc(C(F)(F)F)c(-c3c[nH]c4ccccc34)n2)C1 [Compound 236] | 6.70 to 7.70
29 | 5.30 to 6.70 | 6.70 to 7.70 | 5.30 to 6.70 | 5.30 to 6.70 | CCCCCc1ccc2c(-c3nc(N[C@@H]4CCCNC4)ncc3C(F)(F)F)c[nH]c2c1 [Compound 241] | 6.70 to 7.70
30 | 5.30 to 6.70 | > 7.70 | 5.30 to 6.70 | 6.70 to 7.70 | CC1(C)CNC[C@@H](Nc2ncc(C(F)(F)F)c(-c3c[nH]c4ccccc34)n2)C1 [Compound 243] | > 7.70
31 | 5.30 to 6.70 | > 7.70 | ≤ 5.30 | 5.30 to 6.70 | Cc1nc(-c2ccc3c(-c4nc(NC5CCCNC5)ncc4C(F)(F)F)c[nH]c3c2)nn1C (stereo not shown) [Compound 245] | 6.70 to 7.70
32 | 6.70 to 7.70 | > 7.70 | 5.30 to 6.70 | 6.70 to 7.70 | CNC(=O)C1CNCC(Nc2ncc(C(F)(F)F)c(-c3c[nH]c4ccccc34)n2)C1 (stereo not shown) [Compound 253] | 6.70 to 7.70
